Results published in article PMC10970734, “Identification of an Intravenous Injectable NK1 Receptor Antagonist for Use in Traumatic Brain Injury” (International Journal of Molecular Sciences, 2024).
In brackets after ≈: the same amount, converted by molar mass. Like-named read-outs stand apart in the source and are kept apart here.

How the values were obtained:
[1] = tested on: rodent model of TBI; experiment: Cerebral oedema after TBI, wet weight-dry weight method; type: in vivo, Sprague Dawley rats; conditions: rat TBI, 10 mg/kg 30 min post-injury, tissues 6 h post-injury
Experimental: The BBB dysfunction that follows acute CNS injuries can contribute to significant complications, such as cerebral oedema and raised intracranial pressure (ICP). The development of cerebral oedema was assessed using the wet weight–dry weight method, with tissues collected 6 h post-injury.
Injury was induced in halothane-anesthetized (ProVet) male Sprague Dawley rats (400 ± 20 g) using acceleration-induced impact TBI [29, 93]. This model involves impacting a 10 mm diameter, 3 mm thick stainless steel disc fixed centrally to the exposed skull between the lambda and bregma with an accelerating impactor. The impactor was a 450 g brass weight dropped from a height of 2 m. Earlier studies have shown that the impact acceleration injury produces diffuse axonal injury, oedema, BBB opening, Mg^2+ decline, and moderate-to-severe neurologic deficits. All animals were fed and watered ad libitum before the induction of injury. During both surgery and the immediate recovery phase, rat rectal temperature was maintained using a thermostatically controlled heating pad. […] Blood pressure was monitored, both before and after injury, using a femoral arterial line. […]
The amount of oedema development was calculated using the wet weight–dry weight method. […] Edema in each brain sample was calculated using the wet–dry method formula:%Water = (Wet Weight − Dry Weight)/Wet Weight × 100

[2] = tested on: rodent model of TBI; experiment: Motor function after TBI, rotarod test; type: in vivo, Sprague Dawley rats; conditions: rat TBI, 10 mg/kg 30 min post-injury, 10 days
Source text: The maximum duration of the task was 120 s.
Injury was induced in halothane-anesthetized (ProVet) male Sprague Dawley rats (400 ± 20 g) using acceleration-induced impact TBI [29, 93]. This model involves impacting a 10 mm diameter, 3 mm thick stainless steel disc fixed centrally to the exposed skull between the lambda and bregma with an accelerating impactor. The impactor was a 450 g brass weight dropped from a height of 2 m. […] All animals were fed and watered ad libitum before the induction of injury. During both surgery and the immediate recovery phase, rat rectal temperature was maintained using a thermostatically controlled heating pad. Immediately after injury, animals were manually ventilated until stable respiration was restored, usually in <5 min. After injury, all wounds were sutured. Blood pressure was monitored, both before and after injury, using a femoral arterial line.
Motor and cognitive outcomes in animals (n = 6 per group) were assessed using the rotarod and Barnes maze, respectively, as described in detail elsewhere [64]. The rotarod consists of a motorized rotating assembly of 18 rods (1 mm in diameter) upon which the animals were placed. The rotational speed of the device was increased from 0 to 30 r.p.m. and the duration (in seconds) when the animals either completed the task, fell from the rods, or gripped the rods and spun for two consecutive revolutions rather than walking actively was recorded as the rotarod score. […] After activating the bright lights and aversive auditory stimulus, the latency (in seconds) for the animal to locate and enter the escape tunnel was recorded. All animals were pretrained on both functional outcome tests twice per day over 5 days before injury to establish a normal, uninjured baseline.

[3] = biological target: T1, recombinant human NK3 receptor (Homo sapiens, UniProt P29371); experiment: Radioligand binding, recombinant human NK3 receptor
T1 sequence (P29371 1-465): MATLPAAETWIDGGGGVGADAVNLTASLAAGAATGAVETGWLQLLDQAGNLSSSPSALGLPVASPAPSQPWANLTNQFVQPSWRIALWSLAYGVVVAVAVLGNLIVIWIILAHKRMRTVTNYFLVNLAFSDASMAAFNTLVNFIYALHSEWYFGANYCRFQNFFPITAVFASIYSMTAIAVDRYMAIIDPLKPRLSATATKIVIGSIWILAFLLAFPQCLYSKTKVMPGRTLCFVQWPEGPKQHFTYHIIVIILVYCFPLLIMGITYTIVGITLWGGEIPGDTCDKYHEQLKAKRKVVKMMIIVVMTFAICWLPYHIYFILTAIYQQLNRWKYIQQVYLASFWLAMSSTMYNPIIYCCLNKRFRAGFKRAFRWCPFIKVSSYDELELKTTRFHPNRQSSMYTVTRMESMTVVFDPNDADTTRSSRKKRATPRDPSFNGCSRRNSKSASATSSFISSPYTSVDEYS

[4] = biological target: T2, recombinant human NK2 receptor (Homo sapiens, UniProt P21452); experiment: Radioligand binding, recombinant human NK2 receptor
T2 sequence (P21452 1-398): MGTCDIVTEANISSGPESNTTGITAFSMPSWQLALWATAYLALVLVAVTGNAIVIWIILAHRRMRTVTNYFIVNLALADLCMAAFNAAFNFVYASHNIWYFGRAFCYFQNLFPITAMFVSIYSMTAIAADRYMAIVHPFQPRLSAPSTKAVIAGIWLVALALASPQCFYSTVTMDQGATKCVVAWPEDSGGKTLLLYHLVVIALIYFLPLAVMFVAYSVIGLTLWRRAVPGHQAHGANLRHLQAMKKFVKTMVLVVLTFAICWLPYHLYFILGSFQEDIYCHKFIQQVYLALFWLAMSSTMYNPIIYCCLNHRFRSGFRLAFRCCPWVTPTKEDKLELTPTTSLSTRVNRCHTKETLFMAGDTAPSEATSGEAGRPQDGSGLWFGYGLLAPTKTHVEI

[5] = biological target: T3, central NK1Rs (Meriones unguiculatus, UniProt Q5DUB1); experiment: Gerbil foot-tapping response induced by icv GR73632; type: in vivo, Mongolian Gerbils
T3 construct: antagonize central NK1Rs in vivo; from tissue; host or cells: brain of living Mongolian gerbils (in vivo)
T3 sequence (Q5DUB1 whole entry): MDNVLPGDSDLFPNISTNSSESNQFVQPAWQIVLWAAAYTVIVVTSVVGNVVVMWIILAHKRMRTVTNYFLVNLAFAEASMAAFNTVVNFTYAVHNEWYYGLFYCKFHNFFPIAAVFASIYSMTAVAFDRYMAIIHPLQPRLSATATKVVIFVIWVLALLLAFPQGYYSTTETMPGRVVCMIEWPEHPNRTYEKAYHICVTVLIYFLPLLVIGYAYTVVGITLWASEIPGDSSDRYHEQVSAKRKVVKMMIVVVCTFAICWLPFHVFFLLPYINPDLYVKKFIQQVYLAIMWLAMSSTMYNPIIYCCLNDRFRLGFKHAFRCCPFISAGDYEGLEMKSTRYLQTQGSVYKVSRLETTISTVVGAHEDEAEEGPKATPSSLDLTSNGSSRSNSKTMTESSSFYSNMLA
Source text: The ability of EUC-001 to antagonize central NK1Rs in vivo was examined using the gerbil foot-tapping response. The hind-foot-tapping response is a species-specific, CNS-mediated reaction that occurs in response to fear-evoking situations or aversive stimuli. The same, stereotyped response can be induced by the intracerebroventricular (icv) injection of a selective NK1 receptor agonist, such as GR73632 [59]. In turn, this NK1R-mediated response can be inhibited by centrally acting NK1R antagonists, as well as other anxiolytic agents. Animals were pretreated with a range of concentrations of EUC-001 2 h prior to the icv administration of the NK1R agonist, GR73632.
Female Mongolian Gerbils weighing 30–60 g were administered drug vehicle or a predetermined dose of EUC-001 either orally (po) at a volume of 5 mL/kg or intravenously (iv) at a volume of 1 mL/kg. […] Following recovery from the anesthesia (recovery of the righting reflex), a 5 min observation period was allocated per study and the amount of time gerbils spent tapping their hind paws was measured.

[6] = Aqueous solubility; type: physicochemical; conditions: water

## Cc1ccccc1-c1cc(N2CCN(C)CC2)ncc1C(=O)N(C)Cc1cc(C(F)(F)F)cc(C(F)(F)F)c1 [EUC-001, N-(3,5-Bis-trifluoromethyl-benzyl)-N-methyl-6-(4-methyl-piperazine-1-yl)-4-o-tolyl-nicotinamide]
[1]
  Brain tissue water content (cerebral oedema): not significantly different from sham
[2]
  Motor function, rotarod score: much smaller decline in motor function
[3]
  Ki: 17 µM
[4]
  Ki: 3.4 µM
[5]; iv administration, icv GR73632, read-out: IC50 dose, inhibition of foot-tapping response
  ED50: 0.68 mg/kg
[5]; oral administration (po), icv GR73632 3 pmol/5 µL, read-out: IC50 dose, inhibition of foot-tapping response
  ED50: 0.89 mg/kg
[6]; free base
  solubility: 500 µg/mL (≈ 908 µM)
[6]; hydrochloride salt
  solubility: 1500 µg/mL
